Experimental data: patent US9376376B2, “Substitute diphenylamine compounds use thereof as antitumor agents” (SINOCHEM CORPORATION, priority 2012, dated 2016)

Tests used:
leukemia HL-60 cells = assay: In vitro cell inhibition assay (MTT method), HL-60; type: cell-based, human; conditions: 48 h
Procedure: (§1) The human cancer cell lines used for this assay were lung cancer A549 and leukemia HL-60.
(§2) The A549 or HL-60 cells were picked up from cell incubator, after washed for twice using PBS, cells were digested by 0.25% trypsin, and then add medium to terminate the digestion. After cells were collected using centrifuge and re-suspended, count cells under inverted microscope and add medium to make a density was 5×10^4 cells/mL. After 100 μL aliquots were added to each well of 96-well microtiter plates, cells were cultured in 5% incubator for overnight at 37° C., then the different concentration compounds were added to each well. After incubation for 48 h, MTT solution was added to each well and plates were then incubated for 4 h. The MTT tetrazolium was reduced to formazan by living cells. Then the formazan crystals were dissolved though adding DMSO to each well. The absorbance was read at 570 nm with a microplate reader.

lung cancer A549 cell = assay: In vitro cell inhibition assay (MTT method), A549; type: cell-based, human; conditions: 48 h incubation
Procedure: as §1, §2

Compound	Proliferation inhibitory effect of the compounds on HL-60 cells (% of Control) (leukemia HL-60 cells; concentration 0.01 μM)	Proliferation inhibitory effect of the compounds on HL-60 cells (% of Control) (leukemia HL-60 cells; concentration 0.1 μM)	Proliferation inhibitory effect of the compounds on HL-60 cells (% of Control) (leukemia HL-60 cells; concentration 1 μM)	Proliferation inhibitory effect of the compounds on HL-60 cells (% of Control) (leukemia HL-60 cells; concentration 10 μM)	Proliferation inhibitory effect of the compounds on HL-60 cells (% of Control) (leukemia HL-60 cells; concentration 100 μM)	Proliferation inhibitory effect of the compounds on A549 cell (% of Control) (lung cancer A549 cell; 0.01 μM)	Proliferation inhibitory effect of the compounds on A549 cell (% of Control) (lung cancer A549 cell; 0.1 μM)	Proliferation inhibitory effect of the compounds on A549 cell (% of Control) (lung cancer A549 cell; 1 μM)	Proliferation inhibitory effect of the compounds on A549 cell (% of Control) (lung cancer A549 cell; 10 μM)	Proliferation inhibitory effect of the compounds on A549 cell (% of Control) (lung cancer A549 cell; 100 μM)
N#Cc1c(Cl)c(Cl)c(Nc2cc(C(F)(F)F)ccc2F)c(C#N)c1Cl [Compound 6-35]	−8.3 % of Control	−5.0 % of Control	−1.8 % of Control	72.3 % of Control	89.9 % of Control	0.5 % of Control	−0.8 % of Control	1.0 % of Control	58.6 % of Control	92.7 % of Control
Cc1c(Cl)c([N+](=O)[O-])cc([N+](=O)[O-])c1Nc1c(Cl)cc(C(F)(F)F)cc1Cl [Compound 22-101]	8.3 % of Control	5.5 % of Control	48.6 % of Control	73.4 % of Control	64.7 % of Control	13.7 % of Control	21.4 % of Control	19.1 % of Control	66.4 % of Control	97.5 % of Control
N#Cc1cc(Cl)cc(Cl)c1Nc1c(Cl)c(Cl)c(C#N)c(Cl)c1C#N [Compound 6-109]	0.1 % of Control	2.2 % of Control	2.9 % of Control	52.4 % of Control	94.4 % of Control					
N#Cc1c(Cl)c(Cl)c(Nc2c(Cl)cc([N+](=O)[O-])cc2Cl)c(C#N)c1Cl [Compound 6-99]	8.6 % of Control	34.2 % of Control	60.2 % of Control	56.5 % of Control	54.8 % of Control	0 % of Control	0 % of Control	55.0 % of Control	83.6 % of Control	86.3 % of Control
Cc1c(Cl)c([N+](=O)[O-])cc([N+](=O)[O-])c1Nc1c(Cl)cc(Cl)cc1C#N [Compound 22-120]	9.6 % of Control	20.5 % of Control	19.7 % of Control	63.1 % of Control	61.0 % of Control	0.8 % of Control	0 % of Control	9.8 % of Control	86.8 % of Control	92.1 % of Control
Cc1cc([N+](=O)[O-])cc([N+](=O)[O-])c1Nc1c(Cl)cc(C(F)(F)F)cc1Cl [Compounds 30-101]	−6.4 % of Control	−14.2 % of Control	−0.3 % of Control	57.3 % of Control	80.7 % of Control					
Cc1c(Cl)c([N+](=O)[O-])cc([N+](=O)[O-])c1Nc1c(F)cccc1F [Compound 22-33]	−4.9 % of Control	−1.8 % of Control	54.3 % of Control	66.2 % of Control	81.2 % of Control	−1.6 % of Control	−1.1 % of Control	61.3 % of Control	78.7 % of Control	90.3 % of Control
